Data from article PMC9234589 (Heliyon, 2022).
“And” between values parts separate entries of the source, which are not always exact repeats. Equal values may be shown once. Values belong to the compound of their own block, whether it stands above or below them.

Key:
[1] = test system: Drosophila melanogaster high bioactivation cross (HB), marker-heterozygous flies (mwh +/+ flr3); experiment: Drosophila wing spot test; type: in vivo
[2] = test system: A549 human adenocarcinoma cells; settings: cited from earlier work
[3] = test system: Drosophila melanogaster standard cross (ST), marker-heterozygous flies (mwh +/+ flr3); experiment: Drosophila wing spot test; type: in vivo
C. elegans = settings: NIC 100 μM; cited from earlier work
human lymphocytes = settings: cited from earlier work
[4] = HB cross, URE 20 mM positive control, vs water
[5] = ST cross, URE 20 mM positive control, vs water
[6] = NIC 0.456 mM + RES 0.0004 mM vs NIC 0.456 mM
[7] = NIC 0.456 mM + RES 0.0004 mM vs RES 0.0004 mM
[8] = NIC 0.456 mM + RES 0.011 mM vs RES 0.011 mM
[9] = NIC 11.4 mM + RES 0.0004 mM vs RES 0.0004 mM
[10] = NIC […] + RES 0.0004 mM vs NIC […]
[11] = NIC […] + RES 0.0004 mM vs RES 0.0004 mM

Structure (SMILES): Oc1ccc(/C=C/c2cc(O)cc(O)c2)cc1 [RES, Resveratrol]
Clone formation observed ([1]; RES 0.0004 mM): 1.20 per 105 per cell Cells division
Large single spots (>2 cells) per fly (number of spots) ([1]; RES 0.0004 mM): 0.06 (005)
Mean mwh clone size class ([1]; RES 0.0004 mM): 1.84
Small single spots (1-2 cells) per fly (number of spots) ([1]; RES 0.0004 mM): 0.52 (045)
Total spots per fly (number of spots) ([1]; RES 0.0004 mM): 0.59 (051)
Twin spots per fly (number of spots) ([1]; RES 0.0004 mM): 0.01 (001)
mwh clones ([1]; RES 0.0004 mM): 51
Mean mwh clone size class ([1]; RES 0.011 mM): 1.43 and 1.56
Twin spots per fly (number of spots) ([1]; RES 0.011 mM): 0.02 (001)
Effect on cell survival (in words) ([2]; RES 0.02 mM): inhibited cell survival
Effect on cell proliferation and viability (in words) ([2]; RES 0.001 and 0.005 mM): promoted cell proliferation and viability
Clone formation observed ([3]; RES 0.0004 mM): 1.15 per 105 per cell Cells division
Large single spots (>2 cells) per fly (number of spots) ([3]; RES 0.0004 mM): 0.07 (004)
Mean mwh clone size class ([3]; RES 0.0004 mM): 1.64
Small single spots (1-2 cells) per fly (number of spots) ([3]; RES 0.0004 mM): 0.53 (031)
Total spots per fly (number of spots) ([3]; RES 0.0004 mM): 0.60 (035)
Twin spots per fly (number of spots) ([3]; RES 0.0004 mM): 0.00 (0)
mwh clones ([3]; RES 0.0004 mM): 33
Clone formation observed ([3]; RES 0.011 mM): 1.15 per 105 per cell Cells division and 1.35 per 105 per cell Cells division
Large single spots (>2 cells) per fly (number of spots) ([3]; RES 0.011 mM): 0.03 (002) and 0.05 (005)
Mean mwh clone size class ([3]; RES 0.011 mM): 1.84 and 1.58
Small single spots (1-2 cells) per fly (number of spots) ([3]; RES 0.011 mM): 0.47 (027) and 0.58 (057)
Total spots per fly (number of spots) ([3]; RES 0.011 mM): 0.57 (033) and 0.67 (066)
Twin spots per fly (number of spots) ([3]; RES 0.011 mM): 0.07 (004) and 0.04 (004)

Clone formation per 105 cells per cell division, observed ([1]; HB cross, URE 20 mM): 6.35
Mean mvh clone size class ([1]; HB cross, URE 20 mM): 1.82
mwh clones ([1]; HB cross, URE 20 mM): 71
Small single spots (1-2 cells), Spots per Fly (Number of Spots) [1, 4]: 2.52 (58) Spots per Fly
Small single spots (1-2 cells), Statistical Diagnosis [1, 4]: +
Total spots statistical diagnosis [1, 4]: +
Total spots, Spots per Fly (Number of Spots) [1, 4]: 3.09 (71) Spots per Fly
Twin spots statistical diagnosis [1, 4]: +
Twin spots, Spots per Fly (Number of Spots) [1, 4]: 0.17 (4) Spots per Fly
large single spots (>2 cells), Spots per Fly (Number of Spots) [1, 4]: 0.39 (09) Spots per Fly
large single spots (>2 cells), Statistical Diagnosis [1, 4]: +
Clone formation per 105 cells per cell division, control connected ([1]; HB cross, URE 20 mM, control water): 4.85
Clone formation per 105 cells per cell division, observed ([3]; ST cross, URE 20 mM): 2.80
Mean mvh clone size class ([3]; ST cross, URE 20 mM): 1.45
mwh clones ([3]; ST cross, URE 20 mM): 38
Small single spots (1-2 cells), Spots per Fly (Number of Spots) [3, 5]: 1.21 (34) Spots per Fly
Small single spots (1-2 cells), Statistical Diagnosis [3, 5]: +
Total spots statistical diagnosis [3, 5]: +
Total spots, Spots per Fly (Number of Spots) [3, 5]: 1.36 (38) Spots per Fly
Twin spots statistical diagnosis [3, 5]: -
Twin spots, Spots per Fly (Number of Spots) [3, 5]: 0.04 (1) Spots per Fly
large single spots (>2 cells), Spots per Fly (Number of Spots) [3, 5]: 0.11 (03) Spots per Fly
large single spots (>2 cells), Statistical Diagnosis [3, 5]: -
Clone formation per 105 cells per cell division, control connected ([3]; ST cross, URE 20 mM, control water): 1.65
Structure (SMILES): CCOC(N)=O [URE, ethyl carbamate]

Structure (SMILES): CN1CCC[C@H]1c1cccnc1 [NIC, nicotine]
Lethality ([1]; HB cross, NIC 11.4 mM): lethal
Clone formation observed ([1]; NIC 0.456 mM): 0.95 per 105 per cell Cells division
Large single spots (>2 cells) per fly (number of spots) ([1]; NIC 0.456 mM): 0.07 (007)
Mean mwh clone size class ([1]; NIC 0.456 mM): 1.64
Small single spots (1-2 cells) per fly (number of spots) ([1]; NIC 0.456 mM): 0.38 (038)
Total spots per fly (number of spots) ([1]; NIC 0.456 mM): 0.48(048)
Twin spots per fly (number of spots) ([1]; NIC 0.456 mM): 0.03 (003)
mwh clones ([1]; NIC 0.456 mM): 47
Clone formation observed ([1]; NIC 0.456 mM + RES 0.0004 mM): 0.95 per 105 per cell Cells division and 0.90 per 105 per cell Cells division
Large single spots (>2 cells) per fly (number of spots) ([1]; NIC 0.456 mM + RES 0.0004 mM): 0.11 (007)
Mean mwh clone size class ([1]; NIC 0.456 mM + RES 0.0004 mM): 2.21
Small single spots (1-2 cells) per fly (number of spots) ([1]; NIC 0.456 mM + RES 0.0004 mM): 0.36 (023)
Total spots per fly (number of spots) ([1]; NIC 0.456 mM + RES 0.0004 mM): 0.47 (030)
Twin spots per fly (number of spots) ([1]; NIC 0.456 mM + RES 0.0004 mM): 0.00 (000)
mwh clones ([1]; NIC 0.456 mM + RES 0.0004 mM): 29
Clone formation control connected [1, 6]: -0.05 per 105 per cell Cells division
Large single spots statistical diagnosis [1, 6]: -
Small single spots statistical diagnosis [1, 6]: -
Total spots statistical diagnosis [1, 6]: -
Twin spots statistical diagnosis [1, 6]: -
Clone formation control connected [1, 7]: -0.25 per 105 per cell Cells division
Large single spots statistical diagnosis [1, 7]: -
Small single spots statistical diagnosis [1, 7]: -
Total spots statistical diagnosis [1, 7]: -
Twin spots statistical diagnosis [1, 7]: -
Large single spots (>2 cells) per fly (number of spots) ([1]; NIC 0.456 mM + RES 0.011 mM): 0.10 (006)
Small single spots (1-2 cells) per fly (number of spots) ([1]; NIC 0.456 mM + RES 0.011 mM): 0.37 (022)
Clone formation control connected [1, 8]: 0.20 per 105 per cell Cells division
Small single spots statistical diagnosis [1, 8]: -
Clone formation observed ([1]; NIC 11.4 mM + RES 0.0004 mM): 0.80 per 105 per cell Cells division
Large single spots (>2 cells) per fly (number of spots) ([1]; NIC 11.4 mM + RES 0.0004 mM): 0.00 (000)
Mean mwh clone size class ([1]; NIC 11.4 mM + RES 0.0004 mM): 1.25
Small single spots (1-2 cells) per fly (number of spots) ([1]; NIC 11.4 mM + RES 0.0004 mM): 0.40 (004)
Total spots per fly (number of spots) ([1]; NIC 11.4 mM + RES 0.0004 mM): 0.40 (004)
Twin spots per fly (number of spots) ([1]; NIC 11.4 mM + RES 0.0004 mM): 0.00 (000)
mwh clones ([1]; NIC 11.4 mM + RES 0.0004 mM): 04
Clone formation control connected [1, 9]: -0.40 per 105 per cell Cells division
Large single spots statistical diagnosis [1, 9]: -
Small single spots statistical diagnosis [1, 9]: -
Total spots statistical diagnosis [1, 9]: -
Twin spots statistical diagnosis [1, 9]: -
Large single spots statistical diagnosis [1, 10]: -
Twin spots statistical diagnosis [1, 10]: -
Large single spots statistical diagnosis [1, 11]: -
Small single spots statistical diagnosis [1, 11]: -
Total spots statistical diagnosis [1, 11]: -
Twin spots statistical diagnosis [1, 11]: -
Genotoxicity, comet assay (in words) (C. elegans): genotoxic
Concentrations at which genotoxic in in vitro assays (human lymphocytes): > 500 nM
Mean mwh clone size class ([3]; NIC 0.050 mM + RES 0.011 mM): 1.34
Number of surviving flies ([3]; ST cross, NIC 11.4 mM): decreased
Genotoxicity (in words) ([3]; ST cross, NIC […] and 11.4 mM, increased small and total spots): genotoxic
